Laboratory results published in patent US7566724B2, “Glycine derivative and use thereof” (Toray Industries, Inc., priority 2004, dated 2009).
Structures can show the parent of a compound that is named as a salt. Where two headings read alike, the source gives them in different places.

Tests used:
Jurkat cells = test: Measurement of Inhibitory Effect on Leukocyte Functions (adhesion of Jurkat cells to ligand-expressing cells or ligand-immobilized plate); assay type: cell-based; conditions: Homo sapiens, 0.5 h, read-out: IC50 (adhesion of Jurkat cells)
Protocol: Jurkat cells which are a cell line originated from human acute T cell lymphoma were allowed to react with BCECF-AM at 37° C. for 20 minutes to fluorescently label the cells. The fluorescently labelled Jurkat cells were allowed to react with ligand-expressing cells or with a ligand-immobilized plate at 37° C. for 30 minutes. After removing non-adherent cells by washing, 1% NP40 was added to lyse the adherent cells, and fluorescence intensity was measured with Cytoflow 2300 (Millipore). From the obtained fluorescence intensity, the number of adherent cells was calculated. Each test compound was reacted with the Jurkat cells before the beginning of the adhesion reaction. In Table 18, the IC50 of each compound is shown.

[1] = Pharmacokinetic Evaluation in Rats; assay type: in vivo; conditions: rat, male SD rats, administered orally or intravenously, plasma up to 8 hours, LC/MS/MS; for bioavailability: oral, read-out: BA(%) (bioavailability); for clearance: read-out: CLtot (total clearance) (converted)
Protocol: Each compound was dissolved at a concentration of 0.5 mg/ml in PBS or in PBS containing 10% PEG. The compound was administered orally or intravenously to male SD rats (7 to 9 weeks old). Blood was collected from the tail vein at time points up to 8 hours after the administration, and blood plasma was collected by centrifugation from each obtained blood. The blood plasma was pretreated by using the solid-phase extraction method, and the concentration of the compound was analyzed with LC/MS/MS (ESI negative mode).
As the Comparative Compound, 2-[4-((3,5-dichlorobenzensulfonylamino)methyl)benzoylamino]-5-(4-(methyl-pyrimidin-2-ylamino)phenyl)pento-4-ene acid (XXI) described in WO 99/26923 was used.
[“BA” in Table 17 means bioavailability, and “CLtot” means total clearance.]

[2] = tested on: leukotriene B4 production by neutrophils; test: Measurement of Inhibitory Effect on Inflammatory Mediator Production by Leukocytes (ionomycin-induced leukotriene B4 in neutrophils); assay type: cell-based; conditions: 0.5 h, human neutrophil suspension, 37° C. 30 minutes, EIA
Protocol: A mixture of human peripheral blood and physiological saline containing 3% dextran was left to stand for 30 minutes and then the upper layer was recovered. The upper layer was overlaid on Histopaque 1077 (SIGMA), and the resultant was centrifuged at 1400 rpm for 30 minutes. The supernatant was removed by aspiration and a buffer was added to the precipitate to prepare a neutrophil suspension (4×10^5 cells/mL). To the neutrophil suspension, ionomycin was added and the mixture was incubated at 37° C. for 30 minutes, followed by quantification of leukotriene B4 by EIA (Amersham, Biotrak EIA system). Each test compound was added to the neutrophil suspension before adding ionomycin. In Table 19, the IC50 of each compound is shown.

[3] = fluorescently labelled Jurkat cells, ligand-expressing cells or ligand-immobilized plate, 37° C. 30 minutes

Row | SMILES | IC50 (Jurkat cells; [3]) | other results
1 | CCN(c1ccc(/C=C/CC(NC(=O)c2c(Cl)cccc2Cl)C(=O)O)cc1)c1ncccn1 (stereo not drawn) [Example 24, (E)-2-(2,6-Dichlorobenzamido)-5-[4-(ethyl-pyrimidin-2-ylamino)phenyl]pent-4-enoic acid] | 220 nM | bioavailability [1]: 42.3%; clearance [1]: 12.6 mL/min/kg
2 | COC1(c2ccc(/C=C/CC(NC(=O)c3c(Cl)cccc3Cl)C(=O)O)cc2)CCCOCC1 (stereo not drawn) [Example 10, (E)-2-(2,6-Dichlorobenzamido)-5-[4-(4-methoxyoxepan-4-yl)phenyl]pent-4-enoic acid sodium salt] | 220 nM | 
3 | O=C(NC(C/C=C/c1ccc(Oc2ncccn2)cc1)C(=O)O)c1c(Cl)cccc1Cl (stereo not drawn) [Example 12, (E)-2-(2,6-Dichlorobenzamido)-5-[4-(pyrimidin-2-yloxy)phenyl]pent-4-enoic acid] | 220 nM | 
4 | Cc1cccc(Cl)c1C(=O)NC(C/C=C/c1ccc(N(C)c2ncccn2)cc1)C(=O)O (stereo not drawn) [Example 67, (E)-2-(2-Chloro-6-methylbenzamido)-5-[4-(methyl-pyrimidin-2-ylamino)phenyl]pent-4-enoic acid] | 280 nM | IC50 [2]: 30000 nM
5 | CN(c1ccc(/C=C/CC(NC(=O)c2ccc(CNS(=O)(=O)c3cc(Cl)cc(Cl)c3)cc2)C(=O)O)cc1)c1ncccn1 (stereo not drawn) [Comparative Compound, 2-[4-((3,5-dichlorobenzensulfonylamino)methyl)benzoylamino]-5-(4-(methyl-pyrimidin-2-ylamino)phenyl)pento-4-ene acid, reference compound] |  | bioavailability [1]: 1.7%; clearance [1]: 21.4 mL/min/kg
6 | CC(C)CN(c1ccc(/C=C/CC(NC(=O)c2c(Cl)cccc2Cl)C(=O)O)cc1)c1ncccn1 (stereo not drawn) [Example 55, (E)-2-(2,6-Dichlorobenzamido)-5-[4-(isobutyl-pyrimidin-2-ylamino)phenyl]pent-4-enoic acid sodium salt] |  | IC50 (Jurkat cells; Jurkat): 420 nM
7 | CCCCN(c1ccc(/C=C/CC(NC(=O)c2c(Cl)cccc2Cl)C(=O)O)cc1)c1ncccn1 (stereo not drawn) [Example 37, (E)-5-(4-Butyl-pyrimidin-2-yl-amino)-phenyl]-2-(2,6-dichlorobenzamido)-pent-4-enoic acid sodium salt] |  | IC50 (Jurkat cells; Jurkat): 160 nM
8 | CCCN(c1ccc(/C=C/CC(NC(=O)c2c(Cl)cccc2Cl)C(=O)O)cc1)c1ncccn1 (stereo not drawn) [Example 57, (E)-2-(2,6-Dichlorobenzamido)-5-[4-(propyl-pyrimidin-2-ylamino)phenyl]pent-4-enoic acid] | 110 nM | 
9 | COc1cc(OC)nc(N(C)c2ccc(/C=C/CC(NC(=O)c3c(Cl)cccc3Cl)C(=O)O)cc2)n1 (stereo not drawn) [Example 45, (E)-2-(2,6-Dichlorobenzamido)-5-[4-((4,6-dimethoxy-pyrimidin-2-yl)-methyl-amino)phenyl]pent-4-enoic acid] | 890 nM | 
10 | CCOC1(c2ccc(/C=C/CC(NC(=O)c3c(Cl)cccc3Cl)C(=O)O)cc2)CCOCC1 (stereo not drawn) [Example 6, (E)-2-(2,6-Dichlorobenzamido)-5-[4-(4-ethoxytetrahydropyran-4-yl)-phenyl]pent-4-enoic acid] |  | IC50 [2]: 5630 nM; bioavailability [1]: 68.5%; clearance [1]: 19.8 mL/min/kg
11 | O=C(NC(C/C=C/c1ccc(N(Cc2ccccc2)c2ncccn2)cc1)C(=O)O)c1c(Cl)cccc1Cl (stereo not drawn) [Example 33, (E)-5-[4-(Benzyl-pyrimidin-2-yl-amino)-phenyl]-2-(2,6-dichlorobenzamido)-pent-4-enoic acid sodium salt] |  | IC50 [2]: 16300 nM
12 | O=C(NC(C/C=C/c1ccc(N(CC2CC2)c2ncccn2)cc1)C(=O)O)c1c(Cl)cccc1Cl (stereo not drawn) [Example 53, (E)-5-[4-(Cyclopropylmethyl-pyrimidin-2-ylamino)phenyl]-2-(2,6-dichlorobenzamido)pent-4-enoic acid sodium salt] |  | IC50 (Jurkat cells; Jurkat): 120 nM
13 | Cc1cccc(C)c1C(=O)NC(C/C=C/c1ccc(N(C)c2ncccn2)cc1)C(=O)O (stereo not drawn) [Example 69, (E)-2-(2,6-Dimethylbenzamido)-5-[4-(methyl-pyrimidin-2-ylamino)phenyl]pent-4-enoic acid] | 530 nM | 
14 | O=C(NC(C/C=C/c1ccc(N(Cc2cscn2)c2ncccn2)cc1)C(=O)O)c1c(Cl)cccc1Cl (stereo not drawn) [Example 41, (E)-2-(2,6-Dichlorobenzamido)-5-[4-(pyrimidin-2-yl-thiazol-4-ylmethyl-amino)phenyl]pent-4-enoic acid sodium salt] | 950 nM | 
15 | O=C(NC(C/C=C/c1ccc(N(c2ccccc2)c2ncccn2)cc1)C(=O)O)c1c(Cl)cccc1Cl (stereo not drawn) [Example 47, (E)-2-(2,6-Dichlorobenzamido)-5-[4-(phenyl-pyrimidin-2-ylamino)phenyl]pent-4-enoic acid sodium salt] | 930 nM | 
16 | COC(=O)C(C/C=C/c1ccc(N(CCC#N)c2ncccn2)cc1)NC(=O)c1c(F)cccc1F (stereo not drawn) [Example 70, (E)-5-[4-((2-Cyano-ethyl)-pyrimidin-2-yl-amino)-phenyl]-2-(2,6-difluorobenzamido)-pent-4-enoic acid methyl ester] |  | bioavailability [1]: 63.4%; clearance [1]: 8.87 mL/min/kg

Second part, led by results:

Row | IC50 (Jurkat cells; [3]) | SMILES | other results
17 | 100 nM | CCOC1(c2ccc(/C=C/CC(NC(=O)c3c(Cl)cccc3Cl)C(=O)OC)cc2)CCOCC1 (stereo not drawn) [Example 5, (E)-2-(2,6-Dichlorobenzamido)-5-[4-(4-ethoxytetrahydropyran-4-yl)-phenyl]pent-4-enoic acid methyl ester] | 
18 | 71 nM | O=C(NC(C/C=C/c1ccc(N(Cc2cccnc2)c2ncccn2)cc1)C(=O)O)c1c(Cl)cccc1Cl (stereo not drawn) [Example 39, (E)-2-(2,6-Dichlorobenzamido)-5-[4-(pyridin-3-ylmethyl-pyrimidin-2-ylamino)phenyl]pent-4-enoic acid sodium salt] | 
19 | 36 nM | COCCN(c1ccc(/C=C/CC(NC(=O)c2c(Cl)cccc2Cl)C(=O)O)cc1)c1ncccn1 (stereo not drawn) [Example 26, (E)-2-(2,6-Dichlorobenzamido)-5-[4-((2-methoxyethyl)-pyrimidin-2-ylamino)phenyl]pent-4-enoic acid sodium salt] | 
20 | 69 nM | COCC1(c2ccc(/C=C/CC(NC(=O)c3c(Cl)cccc3Cl)C(=O)O)cc2)CCOCC1 (stereo not drawn) [Example 8, (E)-2-(2,6-Dichlorobenzamido)-5-[4-(tetrahydro-4-(methoxymethyl)-2H-pyran-4-yl)phenyl]pent-4-enoic acid sodium salt] | 
21 | 33 nM | O=C(NC(C/C=C/c1ccc(N(Cc2ccccn2)c2ncccn2)cc1)C(=O)O)c1c(Cl)cccc1Cl (stereo not drawn) [Example 61] | 
22 | 43 nM | O=C(NC(C/C=C/c1ccc(N(Cc2ccncc2)c2ncccn2)cc1)C(=O)O)c1c(Cl)cccc1Cl (stereo not drawn) [Example 59, (E)-2-(2,6-Dichlorobenzamido)-5-[4-(pyridin-4-ylmethyl-pyrimidin-2-ylamino)phenyl]pent-4-enoic acid] | 
23 | 79 nM | O=C(NC(C/C=C/c1ccc(N(c2ncccn2)C2CCOCC2)cc1)C(=O)O)c1c(Cl)cccc1Cl (stereo not drawn) [Example 49, (E)-2-(2,6-Dichlorobenzamido)-5-[4-(pyrimidin-2-yl-(tetrahydro-pyran-4-yl)-amino)phenyl]pent-4-enoic acid sodium salt] | 
24 | 41 nM | N#CCCN(c1ccc(/C=C/CC(NC(=O)c2c(Cl)cccc2Cl)C(=O)O)cc1)c1ncccn1 (stereo not drawn) [Example 31, (E)-5-[4-((2-Cyano-ethyl)-pyrimidin-2-yl-amino)-phenyl]-2-(2,6-dichlorobenzamido)-pent-4-enoic acid sodium salt] | 
25 | 41 nM | O=C(NC(C/C=C/c1ccc(N(Cc2ccc(O)cc2)c2ncccn2)cc1)C(=O)O)c1c(Cl)cccc1Cl (stereo not drawn) [Example 29, (E)-2-(2,6-Dichlorobenzamido)-5-[4-((4-hydroxy-benzyl)-pyrimidin-2-ylamino)phenyl]pent-4-enoic acid] | 
26 | 88 nM | COc1ccc(CN(c2ccc(/C=C/CC(NC(=O)c3c(Cl)cccc3Cl)C(=O)O)cc2)c2ncccn2)cc1 (stereo not drawn) [Example 35, (E)-2-(2,6-Dichlorobenzamido)-5-[4-((4-methoxy-benzyl)-pyrimidin-2-ylamino)phenyl]pent-4-enoic acid sodium salt] | 
